Reference: patent publication US20180057507A1, “INHIBITORS OF DUAL LEUCINE ZIPPER (DLK) KINASE FOR THE TREATMENT OF DISEASE” (Board of Regents, The University of Texas System, priority 2016, published 2018)

Columns and labels:
human DLK [1] = biological target: T1, human DLK (Homo sapiens, UniProt Q12852); experiment: Phospho-cJun Cellular Assay; assay type: cell-based; parameters: expressed in transfected cells; conditions: HEK293 cells stably transfected with Dox-inducible human DLK; p-cJun (Ser63); 5 h compound incubation
T1 sequence (Q12852 1-859): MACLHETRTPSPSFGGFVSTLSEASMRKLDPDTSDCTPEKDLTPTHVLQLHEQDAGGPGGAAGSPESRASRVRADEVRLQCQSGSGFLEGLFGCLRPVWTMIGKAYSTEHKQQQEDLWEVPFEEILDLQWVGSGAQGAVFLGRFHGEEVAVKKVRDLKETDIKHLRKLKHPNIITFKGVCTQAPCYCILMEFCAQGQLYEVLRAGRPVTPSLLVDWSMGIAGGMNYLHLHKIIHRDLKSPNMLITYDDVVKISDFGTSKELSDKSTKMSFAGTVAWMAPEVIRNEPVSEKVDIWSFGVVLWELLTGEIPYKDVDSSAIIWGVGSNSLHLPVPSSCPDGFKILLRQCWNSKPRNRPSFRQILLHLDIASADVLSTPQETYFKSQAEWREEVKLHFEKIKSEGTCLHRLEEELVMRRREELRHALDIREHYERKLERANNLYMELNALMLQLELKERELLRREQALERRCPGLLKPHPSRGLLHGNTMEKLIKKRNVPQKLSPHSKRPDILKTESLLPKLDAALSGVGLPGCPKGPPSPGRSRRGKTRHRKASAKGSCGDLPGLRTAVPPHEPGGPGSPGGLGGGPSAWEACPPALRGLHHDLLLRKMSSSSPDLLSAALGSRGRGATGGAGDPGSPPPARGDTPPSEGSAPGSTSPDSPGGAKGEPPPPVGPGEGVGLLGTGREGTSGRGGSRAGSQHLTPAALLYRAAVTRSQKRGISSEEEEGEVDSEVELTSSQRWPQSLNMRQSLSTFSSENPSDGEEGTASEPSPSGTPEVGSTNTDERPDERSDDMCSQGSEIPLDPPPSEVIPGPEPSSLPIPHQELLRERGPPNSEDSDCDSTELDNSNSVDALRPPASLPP
Procedure, shortened: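 HEK293 cells with doxycycline-induced human DLK (induced 20 h; uninduced cells as negative control) treated with compound for 5 h at 37 °C. Phospho-cJun (Ser63) measured in lysates with detection-antibody kit; IC50 from variable-slope dose-response fit.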

human DLK [2] = biological target: T1, human DLK; experiment: DLK Kd Determinations (KINOMEscan KdELECT, DiscoveRx); parameters: full length of human DLK (amino acids 1-859); host or cells: transiently transfected HEK293 cells; unpurified extract; conditions: fusion protein of full length human DLK (amino acids 1-859) and NFkB DNA binding domain; qPCR readout; duplicate
Procedure, shortened: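 Competition binding of full-length human DLK (aa 1-859)-NFkB DBD fusion, DNA-tagged, from HEK293 extracts against an immobilized ligand; 1 h at room temperature, 0.9% DMSO. Bead-bound kinase was quantified by qPCR. Kd came from an 11-point 3-fold series (top 30,000 nM), in duplicate, with Hill slope fixed at −1.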

SMILES | IC50 (human DLK [1]) | Kd (human DLK [2])
C[C@H]1COCCN1C1C[C@@H]2[C@H](C1)[C@H]2n1cc(-c2cnc(N)c(C(F)(F)F)c2)nc1C1CC1 (single isomer, unassigned) [Example 140a] | 0.834 µM | 0.032 µM
COCCN1C[C@@H]2[C@H](C1)[C@H]2n1cc(-c2cnc(N)c(C(F)(F)F)c2)nc1CC1CC1 [Example 78, 5-(2-(cyclopropylmethyl)-1-((1R,5S,6s)-3-(2-methoxyethyl)-3-azabicyclo[3.1.0]hexan-6-yl)-1H-imidazol-4-yl)-3-(trifluoromethyl)pyridin-2-amine] | 0.781 µM | 0.064 µM
Nc1ncc(-c2cn([C@H]3[C@@H]4CC(N5CCOCC5)C[C@@H]43)c(CC3CC3)n2)cc1C(F)(F)F (single isomer, unassigned) [Example 138b, 5-(2-(cyclopropylmethyl)-1-(3-morpholinobicyclo[3.1.0]hexan-6-yl)-1H-imidazol-4-yl)-3-(trifluoromethyl)pyridin-2-amine] | 1.05 µM | 0.034 µM

The remaining compounds from weak to strong by IC50 (human DLK [1]), led by results:

IC50 (human DLK [1]) | Kd (human DLK [2]) | SMILES
0.994 µM | 0.071 µM | Nc1ncc(-c2cn([C@H]3[C@@H]4CN(C5CCOCC5)C[C@@H]43)c(CC3CC3)n2)cc1OC(F)F [Example 88, 5-(2-(cyclopropylmethyl)-1-((1R,5S,6s)-3-(tetrahydro-2H-pyran-4-yl)-3-azabicyclo[3.1.0]hexan-6-yl)-1H-imidazol-4-yl)-3-(difluoromethoxy)pyridin-2-amine]
0.747 µM | 0.03 µM | CC(C)c1nc(-c2cnc(N)c(OC(F)(F)F)c2)cn1[C@H]1[C@@H]2CC(N3CCN(CCF)CC3)C[C@@H]21 (single isomer, unassigned) [Example 156a, 5-(1-(3-(4-(2-fluoroethyl)piperazin-1-yl)bicyclo[3.1.0]hexan-6-yl)-2-isopropyl-1H-imidazol-4-yl)-3-(trifluoromethoxy)pyridin-2-amine]
0.544 µM | 0.037 µM | Nc1ncc(-c2cn([C@H]3[C@@H]4CC(N5CCOCC5)C[C@@H]43)c(C3CC3)n2)cc1OC(F)(F)F (single isomer, unassigned) [Example 139a, 5-(2-cyclopropyl-1-(3-morpholinobicyclo[3.1.0]hexan-6-yl)-1H-imidazol-4-yl)-3-(trifluoromethoxy)pyridin-2-amine]
